Data as given in US20220040263A1, “COMPANION DIAGNOSTIC FOR COMBINATION LENALIDOMIDE AND ERYTHROPOIETIN TREATMENT” (H. Lee Moffitt Cancer Center and Research Institute, Inc., priority 2016, published 2022).
Where two headings read alike, the source gives them in different places.

Assays:
STAT5 = assay: EPO-induced phospho-STAT5 MFI in CD71+ primary MDS cells by flow cytometry; format: cell-based, human
Description: BM-MNC were serum deprived in IMDM and 0.4% BSA for 1 hour, then treated as described in FIG. 5. RHu-EPO stimulated cells were treated 5 U/ml×15 minutes at 37° C. Cells were fixed in BD Cytofix (Beckon Dickenson) ×10 minutes, washed in BD Stain Buffer then re-suspended in ice cold 90% methanol. After washing ×2, cells were stained with anti-pSTAT5-phycoerthryin (PE) conjugated antibody and CD71-allophycocyanin (APC) conjugated antibody [20 μg/10^6 cells]. Cells were washed ×2 with stain buffer before transfer to FACScan tubes and analysis on the FACScan flow cytometer. The gated CD71+ cell population accounted for 11.35% of BM-MNC. Results reflect phospho-STAT5:PE MFI in a representative patient specimen. Anti-pSTAT5, CD71-APC and CD34-APC antibodies were purchased from BD-Pharmingen.
To confirm that lenalidomide enhances STAT5 phosphorylation in erythroid precursors from primary BM specimens, BM specimens were evaluated from Low- or Intermediate-1 risk MDS by flow cytometry. As in the UT7 cell line, lenalidomide increased EPO-induced phosphorylation of STAT5 in CD71+ erythroid precursors, whereas lenalidomide alone had no effect on STAT5 phosphorylation [FIG. 3]. The STAT5 phosphorylation delta (PD), i.e., the increase in mean fluorescence intensity (MFI) for EPO-induced STAT5 phosphorylation with the addition of lenalidomide compared to EPO alone was 43.5 relative MFI units, representing a 24% increase in pSTAT5 MF.

UT-7 cells = assay: UT7 colony forming assay with or without EPO; format: cell-based
Description: FIGS. 1A and 1B show Lenalidomide potentiates clonogenic response to […]. […] Colonies were scored after 14 days incubation and the growth of bone marrow colony-forming unit granulocyte, erythroid, macrophage, megakaryocyte (CFU-GEMM); burst-forming unit-erythroid (BFU-E); and colony-forming unit granulocyte-macrophage (CFU-GM) assessed. […] Cells were then plated in methylcellulose+10% FBS, 2000 cells/well, with or without erythropoietin (EPO). Colonies were scored at day seven.
When UT7 cells were exposed to lenalidomide prior to culture initiation with EPO, supra-additive colony forming capacity was observed that exceeded growth induced by EPO and/or lenalidomide treatments [P=0.001].

[1] = tested on: LR non-del(5q) MDS patients refractory to, or not candidates for, rhEpo; assay: Randomized phase III trial LEN vs LEN+EA; format: in vivo, human
Description: Treatment with rhu-Epo ameliorates anemia in a subset of LR-MDS patients, however, effective salvage therapy is limited. LEN promotes erythroid lineage competence and expansion of primitive erythroid precursors in vitro. In the MDS-002 and MDS-005 trials, treatment with LEN improved erythropoiesis, yielding RBC transfusion-independence in 26% of azanucleoside-naive, transfusion-dependent (TD) LR, non-del(5q) MDS patients for a median of 10.2 and 7.75 months, respectively. LEN restores Epo-responsiveness in MDS progenitors by inducing the formation of lipid rafts enriched for signaling competent JAK2/Epo-receptor complexes with exclusion of large isoforms of the JAK2/lyn kinase-phosphatase CD45 generated by alternative splicing (McGraw K, et. al. PLoS One 2014). […] To test this hypothesis, randomized phase III trial was performed comparing treatment with LEN to LEN+EA in LR non-del(5q) MDS patients who were refractory to, or not candidates for treatment with rhEpo.
Patients with Low or Intermediate-1 (Int-1) risk IPSS MDS with hemoglobin <9.5 g/dL who were unresponsive to rhEpo treatment or were TD (>2 units/mo) with serum Epo >500 mU/mL were eligible for study. Patients were stratified by serum Epo level and prior rhEpo (EA vs. darbepoetin vs. none) then randomized to treatment with LEN 10 mg/d×21d q4 wk (Arm A) or LEN+EA 60,000 U SC/wk (Arm B). Primary endpoint was IWG 2006 major erythroid response (MER) rate after 4 cycles. Arm A non-responders were offered cross-over to combined therapy. Secondary endpoints included analysis of response biomarkers.

U937 (non-del5q) cells = assay: Apoptosis by Annexin-V/PI flow cytometry in U937 cells; format: cell-based; settings: 24 hours, all concentrations
Description: AML-EH5q (FIG. 8A) and U937 (FIG. 8B) cells were exposed to lenalidomide, thalidomide or vehicle at the concentrations indicated for 24 hours in IMDM and 20% FBS and apoptosis assessed by flow cytometry using Annexin-V/PI staining. Briefly, cells are incubated for 20 minutes at room temperature in 50 mM HEPES (pH 7.4) and 150 mM NaCl containing 2 mM calcium chloride with a mixture of 1 μg/mLAnnexin V-FITC (Boehringer Mannhein, Mannhein, Germany) and 2.5 μg/mL propidium iodide (PI; Sigma-Aldrich) before analysis.
The hematologic effects of lenalidomide could derive from dual effects that are karyotype-dependent, i.e., (1) the potentiation of erythropoiesis in non-del5q erythroid precursors, and (2) selective suppression of del5q clones. To confirm that lenalidomide is selectively cytotoxic to del-5q clones, an AML cell line transformed from an MDS patient with isolated 5q31 deletion was cultivated and the cell line successfully maintained in suspension culture with recombinant myeloid growth factor supplementation. This cell line [designated AML-EH5q] is an AML cell line that harbors the isolated 5q-deletion. […] To evaluate the selectivity of lenalidomide cytotoxic for del5q clones, apoptotic response to lenalidomide and thalidomide was compared in AML-EH5q and U937 (non-del5q) cells by flow cytometry. […] Viability was unaffected at all concentrations for both agents in U937 cells.

[2] = tested on: azanucleoside-naive, transfusion-dependent LR, non-del(5q) MDS patients; settings: cited from earlier work

## Nc1cccc2c1CN(C1CCC(=O)NC1=O)C2=O (stereo not shown) [lenalidomide, 3-(4-amino-1-oxo-1,3-dihydro-2H-isoindol-2-yl)piperidine-2,6-dione]
STAT5; CD71+ erythroid precursors, Low- or Intermediate-1 risk MDS BM
  EPO-induced phosphorylation of STAT5: increased
STAT5; CD71+ erythroid precursors, lenalidomide alone
  STAT5 phosphorylation: no effect
STAT5; CD71+ primary MDS cells, representative patient specimen
  STAT5 phosphorylation delta (PD): increase in MFI for EPO-induced STAT5 phosphorylation with lenalidomide compared to EPO alone: 43.5 relative MFI units
STAT5; EPO + lenalidomide compared to EPO alone, CD71+ cells
  increase in pSTAT5 MFI: 24%
UT-7 cells; UT7 cells exposed to lenalidomide prior to culture initiation with EPO, P=0.001
  colony forming capacity: supra-additive
UT-7 cells; lenalidomide 1 μM alone, UT7 cells
  colony forming capacity: minimal effect
[1]; 116 evaluable patients, P=0.018
  MER rate among patients evaluable at week 16: 14.3%
[1]; IWG 2006 MER, interim analysis of 163 patients, P=0.015
  major erythroid response (MER) rate, ITT analysis: 9.9%
[1]; MER responders
  median duration of response: not reached
U937 (non-del5q) cells
  viability / apoptosis: unaffected
[2]; MDS-002 and MDS-005 trials
  RBC transfusion-independence: 26%
[2]; MDS-002 trial
  median duration of RBC transfusion-independence: 10.2 months
[2]; MDS-005 trial
  median duration of RBC transfusion-independence: 7.75 months
